Experimental data as given in patent US11713338B2, “Cyclic peptides multimers targeting α-4-β-7 integrin” (priority 2016, dated 2023).

Assays:
[1] = biological target: T1, recombinant integrin α4β1 (Homo sapiens, UniProt P05556+P13612); assay: Integrin α4β1—VCAM-1 competition ELISA; assay type: binding; conditions: for IC50: read-out: ELISA α4β1 Assay IC50; for ELISA Assay Ratio β1/β7: ratio of ELISA IC50s, α4β1 over α4β7
T1 construct: purchased R&D Systems 5397-A3-050
Summary of the method: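 Compound dilutions added to coated plate and shaken at room temperature for 2 h (300 rpm) to binding equilibrium. Wash buffer: 50 mM Tris, 100 mM NaCl, 1 mM MnCl2, 0.05% Tween. Bound Fc-tagged ligand detected with anti-human IgG Fc-HRP, 1 h at room temperature.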

[2] = biological target: T2, recombinant integrin α4β7 (Homo sapiens, UniProt P13612+P26010, DEL724-798); assay: Integrin α4β7—MAdCAM-1 ELISA competition assay; assay type: binding; conditions: read-out: ELISA α4β7 Assay IC50
T2 construct: purchased R&D Systems 5397-A3-050
T2 sequence (P13612 34-970 limits assumed): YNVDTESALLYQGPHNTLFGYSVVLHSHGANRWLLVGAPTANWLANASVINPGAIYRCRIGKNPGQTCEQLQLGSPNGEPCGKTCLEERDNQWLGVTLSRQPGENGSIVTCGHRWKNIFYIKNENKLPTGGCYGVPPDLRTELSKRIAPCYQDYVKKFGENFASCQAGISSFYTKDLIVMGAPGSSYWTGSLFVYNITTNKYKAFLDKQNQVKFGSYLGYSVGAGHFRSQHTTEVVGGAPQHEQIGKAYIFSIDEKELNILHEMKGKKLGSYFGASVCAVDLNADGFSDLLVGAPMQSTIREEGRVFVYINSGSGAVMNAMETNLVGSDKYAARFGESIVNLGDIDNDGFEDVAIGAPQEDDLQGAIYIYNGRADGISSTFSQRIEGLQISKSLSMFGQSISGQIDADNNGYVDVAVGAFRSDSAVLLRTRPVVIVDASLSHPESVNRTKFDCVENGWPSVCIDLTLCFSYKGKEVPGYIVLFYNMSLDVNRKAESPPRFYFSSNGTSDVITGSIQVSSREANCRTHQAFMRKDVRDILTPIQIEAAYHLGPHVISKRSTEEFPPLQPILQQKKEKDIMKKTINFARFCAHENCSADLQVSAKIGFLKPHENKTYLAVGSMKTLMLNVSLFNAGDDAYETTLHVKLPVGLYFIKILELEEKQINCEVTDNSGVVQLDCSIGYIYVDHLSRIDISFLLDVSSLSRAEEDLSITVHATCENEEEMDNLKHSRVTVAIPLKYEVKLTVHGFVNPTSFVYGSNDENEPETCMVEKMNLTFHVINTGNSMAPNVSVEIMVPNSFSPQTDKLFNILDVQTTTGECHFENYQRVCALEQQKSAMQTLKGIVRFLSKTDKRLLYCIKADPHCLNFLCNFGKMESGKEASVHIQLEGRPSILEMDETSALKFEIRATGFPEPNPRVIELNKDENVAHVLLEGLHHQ
T2 sequence (P26010 20-723 limits assumed): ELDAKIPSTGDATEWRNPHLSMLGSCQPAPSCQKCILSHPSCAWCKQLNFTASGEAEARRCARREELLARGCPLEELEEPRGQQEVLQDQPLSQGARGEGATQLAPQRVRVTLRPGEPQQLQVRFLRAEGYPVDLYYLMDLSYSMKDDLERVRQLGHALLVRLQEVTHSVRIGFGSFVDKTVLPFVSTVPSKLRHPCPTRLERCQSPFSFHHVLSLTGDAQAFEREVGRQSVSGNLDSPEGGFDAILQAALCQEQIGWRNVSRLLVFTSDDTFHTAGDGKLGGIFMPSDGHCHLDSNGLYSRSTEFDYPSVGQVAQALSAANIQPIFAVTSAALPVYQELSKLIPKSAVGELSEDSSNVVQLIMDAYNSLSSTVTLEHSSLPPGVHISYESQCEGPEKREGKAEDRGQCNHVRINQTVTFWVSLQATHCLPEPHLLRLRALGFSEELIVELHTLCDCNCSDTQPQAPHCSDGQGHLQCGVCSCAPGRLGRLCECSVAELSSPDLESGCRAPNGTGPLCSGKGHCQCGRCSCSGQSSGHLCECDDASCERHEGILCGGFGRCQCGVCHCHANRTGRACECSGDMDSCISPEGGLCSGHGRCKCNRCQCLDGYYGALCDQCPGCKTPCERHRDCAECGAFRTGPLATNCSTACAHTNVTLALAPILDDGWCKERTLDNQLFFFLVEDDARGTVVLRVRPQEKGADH

T1 sequence (P05556 21-728 limits assumed, one chain of several): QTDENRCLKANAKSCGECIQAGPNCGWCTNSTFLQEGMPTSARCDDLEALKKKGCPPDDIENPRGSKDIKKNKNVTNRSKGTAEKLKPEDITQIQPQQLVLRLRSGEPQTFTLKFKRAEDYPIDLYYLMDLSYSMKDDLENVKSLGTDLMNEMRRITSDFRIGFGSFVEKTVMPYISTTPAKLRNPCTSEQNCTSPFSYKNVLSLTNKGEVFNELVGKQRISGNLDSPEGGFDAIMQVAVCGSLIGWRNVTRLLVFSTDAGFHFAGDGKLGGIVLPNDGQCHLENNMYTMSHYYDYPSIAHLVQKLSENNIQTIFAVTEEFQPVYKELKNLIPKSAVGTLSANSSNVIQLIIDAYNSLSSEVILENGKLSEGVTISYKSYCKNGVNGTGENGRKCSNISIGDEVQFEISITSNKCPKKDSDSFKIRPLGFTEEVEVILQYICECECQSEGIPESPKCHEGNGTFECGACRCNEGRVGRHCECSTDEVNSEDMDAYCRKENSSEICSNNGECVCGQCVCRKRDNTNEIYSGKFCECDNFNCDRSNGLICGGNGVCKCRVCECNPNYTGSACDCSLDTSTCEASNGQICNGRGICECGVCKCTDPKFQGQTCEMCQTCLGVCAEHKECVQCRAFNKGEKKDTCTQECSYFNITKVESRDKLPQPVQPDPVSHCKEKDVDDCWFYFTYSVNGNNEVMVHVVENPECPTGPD

## COc1cc(C(=O)N2CCN(c3ccc(-c4ccc5cc4CNC(=O)[C@@H]4CCCN4[C@H](C(=O)NC(C)(C)C)[C@H](C)NC(=O)[C@H]([C@@H](C)O)NC(=O)[C@H](CC(=O)O)NC(=O)[C@H](CC(C)C)NC5=O)cc3)CC2)cc(-c2ccc(C(=O)N3CCN(c4ccc(-c5ccc6cc5CNC(=O)[C@@H]5CCCN5[C@H](C(=O)NC(C)(C)C)[C@H](C)NC(=O)[C@H]([C@@H](C)O)NC(=O)[C@H](CC(=O)O)NC(=O)[C@H](CC(C)C)NC6=O)cc4)CC3)cc2F)c1 [Compound 464]
[1]
  IC50: 22 nM
[2]
  IC50: 61 nM

## CC(C)C[C@@H]1NC(=O)c2ccc(-c3ccc(N4CCN(C(=O)c5ccc(-c6cccc(C(=O)N7CCN(c8ccc(-c9ccc%10cc9CNC(=O)[C@@H]9CCCN9[C@H](C(=O)NC(C)(C)C)[C@H](C)NC(=O)[C@H]([C@@H](C)O)NC(=O)[C@H](CC(=O)O)NC(=O)[C@H](CC(C)C)NC%10=O)cc8)CC7)n6)nc5)CC4)cc3)c(c2)CNC(=O)[C@@H]2CCCN2[C@H](C(=O)NC(C)(C)C)[C@H](C)NC(=O)[C@H]([C@@H](C)O)NC(=O)[C@H](CC(=O)O)NC1=O [Compound 466]
[1]
  ELISA Assay Ratio β1/β7: 0.3
  IC50: 4.2 nM
[2]
  IC50: 14 nM

## CC(C)C[C@@H]1NC(=O)c2ccc(-c3ccc(N4CCN(C(=O)c5nccnc5C(=O)N5CCN(c6ccc(-c7ccc8cc7CNC(=O)[C@@H]7CCCN7[C@H](C(=O)NC(C)(C)C)[C@H](C)NC(=O)[C@H]([C@@H](C)O)NC(=O)[C@H](CC(=O)O)NC(=O)[C@H](CC(C)C)NC8=O)cc6)CC5)CC4)cc3)c(c2)CNC(=O)[C@@H]2CCCN2[C@H](C(=O)NC(C)(C)C)[C@H](C)NC(=O)[C@H]([C@@H](C)O)NC(=O)[C@H](CC(=O)O)NC1=O [Compound 467]
[1]
  ELISA Assay Ratio β1/β7: 0.1
  IC50: 1 nM
[2]
  IC50: 8.6 nM

## CC(C)C[C@@H]1NC(=O)c2ccc(-c3ccc(N4CCN(c5ncc([N+](=O)[O-])c(N6CCN(c7ccc(-c8ccc9cc8CNC(=O)[C@@H]8CCCN8[C@H](C(=O)NC(C)(C)C)[C@H](C)NC(=O)[C@H]([C@@H](C)O)NC(=O)[C@H](CC(=O)O)NC(=O)[C@H](CC(C)C)NC9=O)cc7)CC6)n5)CC4)cc3)c(c2)CNC(=O)[C@@H]2CCCN2[C@H](C(=O)NC(C)(C)C)[C@H](C)NC(=O)[C@H]([C@@H](C)O)NC(=O)[C@H](CC(=O)O)NC1=O [Compound 468]
[1]
  ELISA Assay Ratio β1/β7: 0.3
  IC50: 10 nM
[2]
  IC50: 32 nM

## CC(C)C[C@@H]1NC(=O)c2ccc(-c3ccc(N4CCN(C(=O)c5cc(-c6ccccc6)c(C(=O)N6CCN(c7ccc(-c8ccc9cc8CNC(=O)[C@@H]8CCCN8[C@H](C(=O)NC(C)(C)C)[C@H](C)NC(=O)[C@H]([C@@H](C)O)NC(=O)[C@H](CC(=O)O)NC(=O)[C@H](CC(C)C)NC9=O)cc7)CC6)cc5-c5ccccc5)CC4)cc3)c(c2)CNC(=O)[C@@H]2CCCN2[C@H](C(=O)NC(C)(C)C)[C@H](C)NC(=O)[C@H]([C@@H](C)O)NC(=O)[C@H](CC(=O)O)NC1=O [Compound 469]
[1]
  ELISA Assay Ratio β1/β7: 0.3
  IC50: 10 nM
[2]
  IC50: 36 nM

## CC(C)C[C@@H]1NC(=O)c2ccc(-c3ccc(N4CCN(C(=O)c5ccc(C(=O)N6CCN(c7ccc(-c8ccc9cc8CNC(=O)[C@@H]8CCCN8[C@H](C(=O)NC(C)(C)C)[C@H](C)NC(=O)[C@H]([C@@H](C)O)NC(=O)[C@H](CC(=O)O)NC(=O)[C@H](CC(C)C)NC9=O)cc7)CC6)s5)CC4)cc3)c(c2)CNC(=O)[C@@H]2CCCN2[C@H](C(=O)NC(C)(C)C)[C@H](C)NC(=O)[C@H]([C@@H](C)O)NC(=O)[C@H](CC(=O)O)NC1=O [Compound 470]
[1]
  ELISA Assay Ratio β1/β7: 0.2
  IC50: 1 nM
[2]
  IC50: 5.4 nM

## CC(C)C[C@@H]1NC(=O)c2ccc(-c3ccc(N4CCN(C(=O)c5ccc(-c6ccc(C(=O)N7CCN(c8ccc(-c9ccc%10cc9CNC(=O)[C@@H]9CCCN9[C@H](C(=O)NC(C)(C)C)[C@H](C)NC(=O)[C@H]([C@@H](C)O)NC(=O)[C@H](CC(=O)O)NC(=O)[C@H](CC(C)C)NC%10=O)cc8)CC7)cc6)cc5)CC4)cc3)c(c2)CNC(=O)[C@@H]2CCCN2[C@H](C(=O)NC(C)(C)C)[C@H](C)NC(=O)[C@H]([C@@H](C)O)NC(=O)[C@H](CC(=O)O)NC1=O [Compound 474]
[1]
  ELISA Assay Ratio β1/β7: 0.4
  IC50: 7.1 nM
[2]
  IC50: 19 nM

## CC(C)C[C@@H]1NC(=O)c2ccc(-c3ccc(N4CCN(C(=O)c5cc(F)ccc5-c5ccc(F)cc5C(=O)N5CCN(c6ccc(-c7ccc8cc7CNC(=O)[C@@H]7CCCN7[C@H](C(=O)NC(C)(C)C)[C@H](C)NC(=O)[C@H]([C@@H](C)O)NC(=O)[C@H](CC(=O)O)NC(=O)[C@H](CC(C)C)NC8=O)cc6)CC5)CC4)cc3)c(c2)CNC(=O)[C@@H]2CCCN2[C@H](C(=O)NC(C)(C)C)[C@H](C)NC(=O)[C@H]([C@@H](C)O)NC(=O)[C@H](CC(=O)O)NC1=O [Compound 475]
[1]
  IC50: 1.1 nM
[2]
  IC50: 11 nM

## CC(C)C[C@@H]1NC(=O)c2ccc(-c3ccc(N4CCN(CC(=O)N5CCN(c6ccc(-c7ccc8cc7CNC(=O)[C@@H]7CCCN7[C@H](C(=O)NC(C)(C)C)[C@H](C)NC(=O)[C@H]([C@@H](C)O)NC(=O)[C@H](CC(=O)O)NC(=O)[C@H](CC(C)C)NC8=O)cc6)CC5)CC4)cc3)c(c2)CNC(=O)[C@@H]2CCCN2[C@H](C(=O)NC(C)(C)C)[C@H](C)NC(=O)[C@H]([C@@H](C)O)NC(=O)[C@H](CC(=O)O)NC1=O [Compound 481]
[1]
  ELISA Assay Ratio β1/β7: 0.2
  IC50: 1.6 nM
[2]
  IC50: 7.1 nM

## CC(C)C[C@@H]1NC(=O)c2ccc(-c3ccc(N4CCN(C(=O)CCC(=O)N5CCN(c6ccc(-c7ccc8cc7CNC(=O)[C@@H]7CCCN7[C@H](C(=O)NC(C)(C)C)[C@H](C)NC(=O)[C@H]([C@@H](C)O)NC(=O)[C@H](CC(=O)O)NC(=O)[C@H](CC(C)C)NC8=O)cc6)CC5)CC4)cc3)c(c2)CNC(=O)[C@@H]2CCCN2[C@H](C(=O)NC(C)(C)C)[C@H](C)NC(=O)[C@H]([C@@H](C)O)NC(=O)[C@H](CC(=O)O)NC1=O [Compound 484]
[1]
  IC50: 1.2 nM
[2]
  IC50: 5.6 nM

## CC(C)C[C@@H]1NC(=O)c2ccc(-c3ccc(N4CCN(C(=O)C[C@@H](N)C(=O)N5CCN(c6ccc(-c7ccc8cc7CNC(=O)[C@@H]7CCCN7[C@H](C(=O)NC(C)(C)C)[C@H](C)NC(=O)[C@H]([C@@H](C)O)NC(=O)[C@H](CC(=O)O)NC(=O)[C@H](CC(C)C)NC8=O)cc6)CC5)CC4)cc3)c(c2)CNC(=O)[C@@H]2CCCN2[C@H](C(=O)NC(C)(C)C)[C@H](C)NC(=O)[C@H]([C@@H](C)O)NC(=O)[C@H](CC(=O)O)NC1=O [Compound 493]
[1]
  ELISA Assay Ratio β1/β7: 0.3
  IC50: 3.5 nM
[2]
  IC50: 12 nM

## CC(C)C[C@@H]1NC(=O)c2ccc(-c3ccc(N4CCN(C(=O)CC[C@H](N)C(=O)N5CCN(c6ccc(-c7ccc8cc7CNC(=O)[C@@H]7CCCN7[C@H](C(=O)NC(C)(C)C)[C@H](C)NC(=O)[C@H]([C@@H](C)O)NC(=O)[C@H](CC(=O)O)NC(=O)[C@H](CC(C)C)NC8=O)cc6)CC5)CC4)cc3)c(c2)CNC(=O)[C@@H]2CCCN2[C@H](C(=O)NC(C)(C)C)[C@H](C)NC(=O)[C@H]([C@@H](C)O)NC(=O)[C@H](CC(=O)O)NC1=O [Compound 494]
[1]
  ELISA Assay Ratio β1/β7: 0.2
  IC50: 1.9 nM
[2]
  IC50: 9.4 nM
